From ChEMBL document CHEMBL1201862, “PubChem BioAssay data set” (2004)
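1) Cells in 96-well plates. 2) Compound, 48 h, 5 concentrations. 3) Linear interpolation between surrounding doses. 4) Unreached endpoint = highest concentration. GI50 = concentration required for 50% inhibition of growth.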 Activity calls are given as the source filed them. Cut-off read from the data, not from the text of the source: active = GI50 up to about 1.1 µM and inactive = higher.

Tests used:
Assay in all cases: NCI tumour cell line growth inhibition, 48 h
SR = test system: SR
SF-268 = test system: SF-268
NCI-H23 = test system: NCI-H23
RPMI-8226 = test system: RPMI-8226
SK-MEL-2 = test system: SK-MEL-2
KM12 = test system: KM12
SW-620 = test system: SW-620
ACHN = test system: ACHN
NCI-H226 = test system: NCI-H226
U-251 = test system: U-251
MOLT-4 = test system: MOLT-4
NCI-H460 = test system: NCI-H460
HCT-116 = test system: HCT-116
SK-OV-3 = test system: SK-OV-3
CAKI-1 = test system: CAKI-1
OVCAR-3 = test system: OVCAR-3
HCC 2998 = test system: HCC 2998
SNB-19 = test system: SNB-19

SMILES	GI50 (SR)	GI50 (SF-268)	GI50 (NCI-H23)	GI50 (RPMI-8226)	GI50 (SK-MEL-2)	GI50 (KM12)	GI50 (SW-620)	GI50 (ACHN)	GI50 (NCI-H226)	GI50 (U-251)	GI50 (MOLT-4)	GI50 (NCI-H460)	GI50 (HCT-116)	GI50 (SK-OV-3)	GI50 (CAKI-1)	GI50 (OVCAR-3)	GI50 (HCC 2998)	GI50 (SNB-19)
Cc1cc(O)nc(NNC(C#N)c2ccc(O)cc2)n1 (configuration not stated)	> 100 µM (inactive)	> 100 µM (inactive)	> 100 µM (inactive)	> 100 µM (inactive)	> 100 µM (inactive)	> 100 µM (inactive)	> 100 µM (inactive)	> 100 µM (inactive)	> 100 µM (inactive)	> 100 µM (inactive)	> 100 µM (inactive)	> 100 µM (inactive)	> 100 µM (inactive)	> 100 µM (inactive)	> 100 µM (inactive)	> 100 µM (inactive)	–	–
COc1ccc(C(c2ccc(C(C)C)cc(=O)c2O)c2c(O)cc3oc(-c4ccccc4)cc(=O)c3c2O)cc1 (configuration not stated)	–	–	4.79 µM (inactive)	6.21 µM (inactive)	–	–	14.5 µM (inactive)	4.21 µM (inactive)	–	6.43 µM (inactive)	5.73 µM (inactive)	3.37 µM (inactive)	2.81 µM (inactive)	12.5 µM (inactive)	9.04 µM (inactive)	5.86 µM (inactive)	3.58 µM (inactive)	4.14 µM (inactive)
O=C(NCCNCCO)N/N=C/c1cccc([N+](=O)[O-])c1	–	> 100 µM (inactive)	> 100 µM (inactive)	> 100 µM (inactive)	> 100 µM (inactive)	> 100 µM (inactive)	> 100 µM (inactive)	> 100 µM (inactive)	> 100 µM (inactive)	> 100 µM (inactive)	> 100 µM (inactive)	> 100 µM (inactive)	> 100 µM (inactive)	> 100 µM (inactive)	> 100 µM (inactive)	> 100 µM (inactive)	–	–
COc1ccc2oc(-c3cccnc3)cc(=O)c2c1	–	58.3 µM (inactive)	> 100 µM (inactive)	53 µM (inactive)	> 100 µM (inactive)	> 100 µM (inactive)	–	59.3 µM (inactive)	> 100 µM (inactive)	> 100 µM (inactive)	36.6 µM (inactive)	32.4 µM (inactive)	80.7 µM (inactive)	–	42.7 µM (inactive)	91.8 µM (inactive)	> 100 µM (inactive)	97.1 µM (inactive)
CN[C@@H](C)[C@@H](NC)c1ccccc1	–	–	> 100 µM (inactive)	> 100 µM (inactive)	–	> 100 µM (inactive)	> 100 µM (inactive)	> 100 µM (inactive)	> 100 µM (inactive)	1.52 µM (inactive)	> 100 µM (inactive)	> 100 µM (inactive)	> 100 µM (inactive)	> 100 µM (inactive)	> 100 µM (inactive)	> 100 µM (inactive)	> 100 µM (inactive)	–
Cc1cc(N(CCC#N)CCC#N)ccc1/N=N/c1cc(Cl)ccc1Cl	–	15.6 µM (inactive)	13.4 µM (inactive)	5.35 µM (inactive)	17.3 µM (inactive)	15.2 µM (inactive)	2.36 µM (inactive)	12.8 µM (inactive)	6.38 µM (inactive)	18.3 µM (inactive)	5.13 µM (inactive)	–	–	16.3 µM (inactive)	3.5 µM (inactive)	5.51 µM (inactive)	16.6 µM (inactive)	17.5 µM (inactive)
CC(=O)n1nnc2ccc([N+](=O)[O-])cc21	> 100 µM (inactive)	> 100 µM (inactive)	> 100 µM (inactive)	> 100 µM (inactive)	> 100 µM (inactive)	> 100 µM (inactive)	> 100 µM (inactive)	> 100 µM (inactive)	> 100 µM (inactive)	> 100 µM (inactive)	> 100 µM (inactive)	> 100 µM (inactive)	> 100 µM (inactive)	> 100 µM (inactive)	> 100 µM (inactive)	> 100 µM (inactive)	–	> 100 µM (inactive)
CC(=O)OC(C)C(=O)C1c2cccc(O)c2C(=O)c2c(O)cc(C)cc21 (configuration not stated)	–	0.381 µM (active)	0.324 µM (active)	0.991 µM (active)	0.429 µM (active)	0.33 µM (active)	0.502 µM (active)	0.579 µM (active)	0.319 µM (active)	0.26 µM (active)	3.06 µM (inactive)	0.375 µM (active)	0.31 µM (active)	0.546 µM (active)	1.71 µM (inactive)	0.427 µM (active)	0.429 µM (active)	0.344 µM (active)
O=C(CC/C(C/C(=N/O)c1ccc(F)cc1)=N/O)N(Cc1ccccc1)Cc1ccccc1	–	> 100 µM (inactive)	> 100 µM (inactive)	> 100 µM (inactive)	> 100 µM (inactive)	> 100 µM (inactive)	> 100 µM (inactive)	> 100 µM (inactive)	> 100 µM (inactive)	> 100 µM (inactive)	> 100 µM (inactive)	> 100 µM (inactive)	> 100 µM (inactive)	–	> 100 µM (inactive)	> 100 µM (inactive)	> 100 µM (inactive)	> 100 µM (inactive)
C[C@]12CCC(=O)C=C1CC[C@@H]1C2CC[C@]2(C)NC(=O)C(C#N)CC12 (some centres not stated)	–	–	> 100 µM (inactive)	> 100 µM (inactive)	> 100 µM (inactive)	> 10 µM (inactive)	> 100 µM (inactive)	> 100 µM (inactive)	> 100 µM (inactive)	> 100 µM (inactive)	> 100 µM (inactive)	> 100 µM (inactive)	> 100 µM (inactive)	> 100 µM (inactive)	> 100 µM (inactive)	> 100 µM (inactive)	> 100 µM (inactive)	–
COc1cc(/C=C\c2cccnc2)cc(OC)c1OC	–	77.1 µM (inactive)	66.8 µM (inactive)	19.6 µM (inactive)	–	36.1 µM (inactive)	38.3 µM (inactive)	> 100 µM (inactive)	> 100 µM (inactive)	33 µM (inactive)	9.84 µM (inactive)	40.8 µM (inactive)	58.2 µM (inactive)	–	44.5 µM (inactive)	54 µM (inactive)	–	83.9 µM (inactive)
CC(=O)C1CC(C)=CCC12C(=O)Nc1ccccc12 (configuration not stated)	–	> 100 µM (inactive)	> 100 µM (inactive)	> 100 µM (inactive)	> 100 µM (inactive)	> 100 µM (inactive)	> 100 µM (inactive)	> 100 µM (inactive)	> 100 µM (inactive)	> 100 µM (inactive)	43 µM (inactive)	> 100 µM (inactive)	> 100 µM (inactive)	> 100 µM (inactive)	> 100 µM (inactive)	> 100 µM (inactive)	> 100 µM (inactive)	> 100 µM (inactive)
CC(=O)NC(CCCNC(=O)N(C)N=O)C(=O)NCc1ccccc1 (configuration not stated)	–	> 100 µM (inactive)	> 100 µM (inactive)	> 100 µM (inactive)	> 100 µM (inactive)	> 100 µM (inactive)	> 100 µM (inactive)	> 100 µM (inactive)	> 100 µM (inactive)	> 100 µM (inactive)	> 100 µM (inactive)	> 100 µM (inactive)	> 100 µM (inactive)	> 100 µM (inactive)	> 100 µM (inactive)	> 100 µM (inactive)	> 100 µM (inactive)	> 100 µM (inactive)
O=C(Nc1nc2ncn(CCO)c2c(=O)[nH]1)c1ccccc1	> 100 µM (inactive)	> 100 µM (inactive)	–	> 100 µM (inactive)	> 100 µM (inactive)	> 100 µM (inactive)	> 100 µM (inactive)	> 100 µM (inactive)	> 100 µM (inactive)	> 100 µM (inactive)	–	> 100 µM (inactive)	> 100 µM (inactive)	> 100 µM (inactive)	> 100 µM (inactive)	> 100 µM (inactive)	–	> 100 µM (inactive)
CC(=O)Nc1cccc2[nH]c3ccccc3c(=O)c12	–	26.7 µM (inactive)	12.3 µM (inactive)	14.7 µM (inactive)	18.6 µM (inactive)	17.7 µM (inactive)	21.4 µM (inactive)	17.4 µM (inactive)	14.8 µM (inactive)	24.1 µM (inactive)	17.1 µM (inactive)	17 µM (inactive)	11.5 µM (inactive)	32.1 µM (inactive)	12.2 µM (inactive)	20.1 µM (inactive)	–	23.2 µM (inactive)
C#C[C@H](CCCC)OC(=O)N[C@H](C)c1ccccc1	26.9 µM (inactive)	63.7 µM (inactive)	–	24.5 µM (inactive)	36.1 µM (inactive)	51.3 µM (inactive)	68.2 µM (inactive)	41.9 µM (inactive)	–	59.8 µM (inactive)	31.3 µM (inactive)	58.2 µM (inactive)	24 µM (inactive)	> 100 µM (inactive)	52.6 µM (inactive)	53.3 µM (inactive)	–	> 100 µM (inactive)
CC1=N/C(=C/c2ccc3c(c2)OCO3)C(=O)O1	–	> 100 µM (inactive)	> 100 µM (inactive)	> 100 µM (inactive)	> 100 µM (inactive)	> 100 µM (inactive)	> 100 µM (inactive)	> 100 µM (inactive)	–	> 100 µM (inactive)	> 100 µM (inactive)	–	> 100 µM (inactive)	> 100 µM (inactive)	> 100 µM (inactive)	> 100 µM (inactive)	–	> 100 µM (inactive)
COC(=O)/C=c1\s/c(=C\C(=O)OC)c2ccccc12	–	> 100 µM (inactive)	> 100 µM (inactive)	> 100 µM (inactive)	> 100 µM (inactive)	11.7 µM (inactive)	> 100 µM (inactive)	> 100 µM (inactive)	57.8 µM (inactive)	> 100 µM (inactive)	> 100 µM (inactive)	–	> 100 µM (inactive)	> 100 µM (inactive)	> 100 µM (inactive)	> 100 µM (inactive)	> 100 µM (inactive)	> 100 µM (inactive)
